Measured values reported in patent US20220073496A1, “NOVEL QUINOLINE DERIVATIVE INHIBITOR” (Nanjing Transthera Biosciences Co., Ltd., priority 2018, published 2022).

Key:
[1] = Stability in liver microsome of mice; format: in vitro ADME; conditions: Mouse liver microsome 0.5 mg protein/mL, compound 1 μM, 37° C.; for half-life at 1 μM / microsomal CLint at 1 μM: liver microsomes
Experimental: Assay 1: Stability assessment of the compounds of the present invention in liver microsome of mice and dogs
(§1) Test substances: the compounds of the present invention, wherein the structures and preparations thereof were as described above.
The composition of the incubation system:
Preparation of Test Substances:
An appropriate amount of the compound was accurately weighed and dissolved in DMSO to prepare a 5.0 mM stock solution. The 5.0 mM stock solution was diluted to 1.0 mM with DMSO, and finally diluted with water to a 10 μM test substance working solution for use (the DMSO content in the reaction system was 0.1%).
(1) The liver microsome (20 mg protein/mL) was taken out from the −80° C. refrigerator, pre-incubated at 37° C. with a water-bathing constant temperature vibrator for 3 minutes, and melted for use.
(2) A mixed solution of the incubation system (excluding compounds and β-NADPH) according to the above “composition of the incubation system” for the assay was prepared, and pre-incubated at 37° C. with a water-bathing constant temperature vibrator for 2 minutes.
(3) Control group (excluding β-NADPH): 30 μL of water and 30 μL of compound working solution (10 μM) were added to 240 μL of the mixed solution of the incubation system of step (2), and vortexed for 30 seconds to mix well. The total reaction volume was 300 μL. A duplicate sample was prepared. The sample was incubated at 37° C. with a water-bathing constant temperature vibrator. The timekeeping began and the sampling time points were set at 0 minute and 60 minutes.
(4) Sample group: 70 μL of β-NADPH solution (10 mM) and 70 μL of compound working solution (10 μM) were added to 560 μL of the mixed solution of step (2). The total reaction volume was 700 μL. The resulting mixture was vortexed for 30 seconds to mix well. A duplicate sample was prepared. The sample was incubated at 37° C. with a water-bathing constant temperature vibrator. The timekeeping began and the sampling time points were set at 0 minute, 5 minutes, 10 minutes, 20 minutes, 30 minutes, and 60 minutes after timekeeping.
(5) After vortexing for 3 minutes, the sample was centrifuged at 4000 rpm for 10 minutes.
(6) 50 μL of the supernatant was taken and 150 μL of water was added. The resulting mixture was vortexed to mix well, and analyzed by LC/MS/MS.
The half-life (t1/2) and clearance rate (Cl) were calculated using the following first-order kinetic formula:
Vd=1/protein content in liver microsome
Note: k was the slope of the logarithm of the remaining amount of the compound versus time, and Vd was the apparent distribution volume.

[2] = target: T1, Tyro-3 (h) (Homo sapiens, UniProt Q06418); experiment: Enzymatic activity test, Tyro-3 (h); format: biochemical; conditions: 10 μM [γ-33P]-ATP, 40 minutes, room temperature
T1 construct: purchased
T1 sequence (Q06418 41-890): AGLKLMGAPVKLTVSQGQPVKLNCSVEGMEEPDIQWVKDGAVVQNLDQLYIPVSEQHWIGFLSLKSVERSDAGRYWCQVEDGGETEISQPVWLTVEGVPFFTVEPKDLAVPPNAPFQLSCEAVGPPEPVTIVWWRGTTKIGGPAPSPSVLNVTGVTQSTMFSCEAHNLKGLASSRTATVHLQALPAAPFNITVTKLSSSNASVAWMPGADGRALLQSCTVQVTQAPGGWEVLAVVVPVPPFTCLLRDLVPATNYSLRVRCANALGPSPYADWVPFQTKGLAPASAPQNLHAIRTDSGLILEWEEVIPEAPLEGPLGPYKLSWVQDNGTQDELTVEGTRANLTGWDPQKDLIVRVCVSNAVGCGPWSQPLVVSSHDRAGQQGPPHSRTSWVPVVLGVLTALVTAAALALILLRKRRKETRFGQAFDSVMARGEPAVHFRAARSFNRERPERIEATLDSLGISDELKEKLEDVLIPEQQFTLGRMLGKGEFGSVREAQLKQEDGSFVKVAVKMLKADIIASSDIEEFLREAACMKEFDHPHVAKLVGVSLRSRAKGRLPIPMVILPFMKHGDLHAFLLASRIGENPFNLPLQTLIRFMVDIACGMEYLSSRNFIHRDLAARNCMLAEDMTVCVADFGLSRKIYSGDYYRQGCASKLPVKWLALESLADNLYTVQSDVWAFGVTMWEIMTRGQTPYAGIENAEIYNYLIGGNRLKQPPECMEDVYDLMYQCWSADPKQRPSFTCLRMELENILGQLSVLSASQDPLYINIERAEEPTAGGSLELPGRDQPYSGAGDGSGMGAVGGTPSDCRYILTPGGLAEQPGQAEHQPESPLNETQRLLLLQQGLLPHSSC
Experimental: Assay 3: Enzymatic Activity Test of the Compounds of the Present Invention
as §1
(1) Preparation of the Compound Stock Solution
The compound was dissolved in 100% DMSO to prepare a stock solution with a maximum concentration of 500 μM.
(2) Preparation of the Compound Working Solution
The compound stock solution was diluted to final concentrations of 500, 150, 50, 15, 5, 1.5, 0.5, 0.15 and 0.05 μM to become the compound working solutions (50×).
(3) Preparation of Different Enzyme Reaction Solutions
The Tyro3 (h) enzyme was dissolved in 8 mM MOPS (pH 7.0), 0.2 mM EDTA, 1 mM MnCl2, and 250 μM KVEKIGEGTYGVVYK to prepare an enzyme solution having a final concentration of 38 nM. The enzymatic reaction was activated by using 10 mM magnesium acetate and 10 μM [γ-^33P]-ATP to form an Mg/ATP mixed solution.
In a 384-well plate, the compound working solution was added to final concentrations of 10000, 3000, 1000, 300, 100, 30, 10, 3, and 1 nM. Then different enzyme reaction solutions prepared according to the above conditions were added. The incubation was carried out for 40 minutes at room temperature. The test was terminated by the addition of a 0.5% phosphoric acid solution. 10 μL of the reaction solution was taken and dropped to the P30 filter paper. The filter paper was washed 4 times with 0.425% phosphoric acid solution and once with methanol, and then placed on a scintillation counter. The […] IC50 values were calculated using GraphPad 5.0 software.

| SMILES | half-life at 1 μM [1] [h] | microsomal CLint at 1 μM [1] [µL/min/mg] | IC50 [2] [nM] | t1/2 [1] |
| --- | --- | --- | --- | --- |
| COc1cc2nccc(Oc3ccc(NC(=O)c4nn(C5CC5)cc(-c5ccc(F)cc5)c4=O)cn3)c2cc1OC [Compound 36] | 5.02 | 4.6 | 7 |  |
| COc1cc2nccc(Oc3ncc(NC(=O)c4nn(C(C)C)cc(-c5ccc(F)cc5)c4=O)cn3)c2cc1OC [Compound 34, N-(2-((6,7-dimethoxyquinolin-4-yl)oxy)pyrimidine-5-yl)-5-para-fluorophenyl-1-isopropyl-4-oxo-1,4-dihydropyridazine-3-carboxamide] | 4.62 | 5 | 7 |  |
| COc1cc2nccc(Oc3ccc(NC(=O)c4cn(C(C)C)cc(-c5ccc(C)cc5)c4=O)nc3)c2cc1OC [Compound 1, N-(5-((6,7-dimethoxyquinolin-4-yl)oxy)pyridin-2-yl)-1-isopropyl-4-oxo-5-p-tolyl-1,4-dihydropyridin-3-carboxamide] | 1.27 | 18.2 | 29 |  |
| COc1cc2nccc(Oc3ccc(NC(=O)c4cn(C(C)C)cc(-c5ccc(F)cc5)c4=O)nc3)c2cc1OC [Compound 14, N-(5-((6,7-dimethoxyquinolin-4-yl)oxy)pyridin-2-yl)-5-(4-fluorophenyl)-1-isopropyl-4-oxo-1,4-dihydropyridin-3-carboxamide] | 3.12 | 7.4 | 21 |  |
| COc1cc2nccc(Oc3cnc(NC(=O)c4cn(C5CC5)cc(-c5ccc(F)cc5)c4=O)nc3)c2cc1OC [Compound 32, 1-cyclopropyl-N-(5-((6,7-dimethoxyquinolin-4-yl)oxy)pyrimidine-2-yl)-5-(4-fluorophenyl)-4-oxo-1,4-dihydropyridin-3-carboxamide] | 4.13 | 5.6 | 11 |  |
| COc1cc2nccc(Oc3cnc(NC(=O)c4nn(C5CC5)cc(-c5ccc(F)cc5)c4=O)nc3)c2cc1OC [Compound 33] | 2.75 | 8.4 | 8 |  |
| COc1cc2nccc(Oc3ccc(NC(=O)c4cn(C(C)C)nc(-c5ccc(F)cc5)c4=O)cn3)c2cc1OC [Compound 38, N-(6-((6,7-dimethoxyquinolin-4-yl)oxy)pyridin-3-yl)-6-para-fluorophenyl-2-isopropyl-5-oxo-2,5-dihydropyridazine-4-carboxamide] |  |  | 93 |  |
| COc1cc2nccc(Oc3ccc(NC(=O)c4cn(C5CC5)cc(-c5ccc(F)cc5)c4=O)nc3)c2cc1OC [Compound 30, N-(5-((6,7-dimethoxyquinolin-4-yl)oxy)pyridin-2-yl)-1-cyclopropyl-4-oxo-5-para-fluorophenyl-1,4-hydropyridin-3-carboxamide] | 0.888 | 26 | 16 |  |
| COc1cc2nccc(Oc3ccc(NC(=O)c4nn(C5CC5)cc(-c5ccc(F)cc5)c4=O)nc3)c2cc1OC [Compound 31] | 14.4 | 1.6 | 7 |  |
| COc1cc2nccc(Oc3cnc(NC(=O)c4cn(C(C)C)cc(-c5ccc(F)cc5)c4=O)nc3)c2cc1OC [Compound 20, N-(5-((6,7-dimethoxyquinolin-4-y)oxy)pyrimidine-2-yl)-5-(4-fluorophenyl)-1-isopropyl-4-oxo-1,4-dihydropyridin-3-carboxamide] | 5.5 | 4.2 |  |  |

Next, values leading:

| half-life at 1 μM [1] [h] | microsomal CLint at 1 μM [1] [µL/min/mg] | IC50 [2] [nM] | t1/2 [1] | SMILES |
| --- | --- | --- | --- | --- |
| 57.8 | 4 | 36 |  | COc1cc2nccc(Oc3cnc(NC(=O)c4cn(C(C)C)nc(-c5ccc(F)cc5)c4=O)nc3)c2cc1OC [Compound 39, N-(5-((6,7-dimethoxyquinolin-4-yl)oxy)pyrimidine-2-yl)-6-(4-fluorophenyl)-2-isopropyl-5-oxo-2,5-dihydropyridazine-4-carboxamide] |
| 10.5 | 2.2 |  |  | COc1cc2nccc(Oc3ccc(NC(=O)c4cn(C5CC5)nc(-c5ccc(F)cc5)c4=O)cn3)c2cc1OC [Compound 43, 2-cyclopropyl-N-(6-((6,7-dimethoxyquinolin-4-yl)oxy)pyridin-3-yl)-6-para-fluorophenyl-5-oxo-2,5-dihydropyridazine-4-carboxamide] |
| 8.88 | 2.6 | 143 |  | COc1cc2nccc(Oc3ncc(NC(=O)c4cn(C(C)C)nc(-c5ccc(F)cc5)c4=O)cn3)c2cc1OC [Compound 40, N-(2-((6,7-dimethoxyquinolin-4-yl)oxy)pyrimidine-5-yl)-6-(4-fluorophenyl)-2-isopropyl-5-oxo-2,5-dihydropyridazine-4-carboxamide] |
|  |  |  | →∞ | COc1cc2nccc(Oc3ccc(NC(=O)c4nn(C5CC5)cc(-c5ccc(C)cc5)c4=O)nc3)c2cc1OC [Compound 46, 1-cyclopropyl-N-(5-((6,7-dimethoxyquinolin-4-yl)oxy)pyridin-2-yl)-4-oxo-5-p-tolyl-1,4-dihydropyridazine-3-carboxamide] |
| 3.3 | 7 |  |  | COc1cc2nccc(Oc3cnc(NC(=O)c4cn(C5CC5)nc(-c5ccc(F)cc5)c4=O)nc3)c2cc1OC [Compound 45, 2-cyclopropyl-N-(5-((6,7-dimethoxyquinolin-4-yl)oxy)pyrimidine-2-yl)-6-(4-fluorophenyl)-5-oxo-2,5-dihydropyridazine-4-carboxamide] |
|  |  |  | →∞ | COc1cc2nccc(Oc3ccc(NC(=O)c4cn(C5CC5)nc(-c5ccc(F)cc5)c4=O)nc3)c2cc1OC [Compound 42, 2-cyclopropyl-N-(5--((6,7-dimethoxyquinolin-4-yl)oxy)pyridin-2-yl)-6-(4-fluorophenyl)-5-oxo-2,5-dihydropyridazine-4-carboxamide] |
|  |  | 65 |  | COc1cc2nccc(Oc3ccc(NC(=O)c4cn(C(C)C)nc(-c5ccc(F)cc5)c4=O)nc3)c2cc1OC [Compound 41, N-(5-((6,7-dimethoxyquinolin-4-yl)oxy)pyridin-2-yl)-6-(4-fluorophenyl)-2-isopropyl-5-oxo-2,5-dihydropyridazine-4-carboxamide] |
